Results on one molecule are retold here after article PMC12074795, “Synthesis and biological evaluation of esterified anti-inflammatory drugs with ethylene glycol linkers: cytotoxicity, anti-inflammatory and antioxidant properties” (Royal Society Open Science, 2025).

A short description of this data set: Cell viability (MTT) assay on macrophages in primary culture. It counts as cell-based. The note with it: Wistar, mouse, peritoneal macrophages in primary culture, concentrations 2.41 × 10^–4 to 2.41 mM, read-out: half cytotoxic concentration (IC50). Here is the method: The inflammatory response is part of the body’s first line of defence against a pathogen. Macrophages are one of the most studied inflammatory cells due to their high involvement in this inflammatory process. The recognition of an antigenic motif by a toll-like receptor on macrophages leads to a cascade of molecular signalling to the synthesis of pro-inflammatory mediators such as NO to eliminate the pathogen. First, the effect of the compounds on cell viability was assessed by measuring the cytotoxicity of the compounds in cell culture using the MTT assay at concentrations ranging from 2.41 × 10^–4 to 2.41 mM (figure 1).
Peritoneal macrophages were isolated from four eight-week-old, 25 g Wistar mice by intraperitoneal injection of 0.5 ml of 2% starch solution (inflammatory agent) to stimulate their production. Four days later, the animals were sacrificed, and 5 ml of phosphate buffered saline (PBS) buffer (0.1 M, pH 7.4) was injected into their peritoneal cavity with a syringe. […]
The effect of the solutions of synthetic compounds on the viability of macrophages in primary culture was determined by using the MTT as previously described in the literature. […] Finally, the absorbance of the purple solution was read at 630 nm against the acidified isopropanol solution. The percentage of cell viability was calculated using the following formula: […]

In the case of `CC(C)Cc1ccc(C(=O)OCCOC(=O)C(C)c2ccc(CC(C)C)cc2)cc1` (stereo not shown) [Compound 2, 2-((2-(4-isobutylphenyl)propanoyl)oxy)ethyl 4-isobutylbenzoate], the IC50 at 3 h stood at 4.9 mM.
